Test results as given in PubChem BioAssay AID687005 (Broad Institute, 2013).
Inconclusive results are not listed. Active and inactive are the calls of the source.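 How the source made its calls: active means Compounds that reduce signal, with fitted half-maximal dose at or under twice the top valid tested dose; inconclusive means Poor fit, or flat curve losing 30 to 70% of signal; inactive means Potency past limit, flat within 30%, or opposite direction.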

Assay: viability loss in HEK293T cells – cell-based, ATP luminescence, cherry-pick samples, cytotoxicity control, dose response (AID 687005)
Details: HEK293T viability, ATP luminescence (CellTiter-Glo), 48 h; at 23.5 µM (top of the series)

| Structure (SMILES) | activity change, negative = cytotoxicity |
| --- | --- |
| O=C(NC1CCCCC1)N[C@H]1C=C[C@@H](CC(=O)N2CCOCC2)O[C@H]1CO | 14.2% (inactive) |
| C[C@H](CO)N1C[C@H](C)[C@H](CN(C)CC2CCCCC2)Oc2ccc(NC(=O)Nc3ccc4c(c3)OCO4)cc2C1=O | -3.46% (inactive) |
| C[C@H]1CN([C@@H](C)CO)C(=O)c2cc(NC(=O)Nc3ccc4c(c3)OCO4)ccc2O[C@@H]1CN(C)CC1CCCCC1 | -55.7% (inactive) |
| CCCNC(=O)[C@@H]1[C@@H](CO)[C@@H]2Cn3c(cccc3=O)[C@H]1N2C(=O)Nc1cc(F)ccc1F | 27.4% (inactive) |
| O=C(C[C@H]1CC[C@@H]2[C@H](COC[C@@H](O)CN2Cc2cccc(C(F)(F)F)c2)O1)NCc1ccc(Cl)cc1 | 16.8% (inactive) |
| C[C@H](CO)N1C[C@H](C)[C@@H](CN(C)C(=O)c2ccncc2)OCCCC[C@H](C)Oc2ccc(NC(=O)Cc3ccccc3)cc2C1=O | -0.45% (inactive) |

Same assay, conditions: HEK293T viability, ATP luminescence (CellTiter-Glo), 48 h; at 26 µM (top of the series)

| Structure (SMILES) | activity change, negative = cytotoxicity |
| --- | --- |
| C[C@H]1CN([C@@H](C)CO)C(=O)CCCn2nncc2CO[C@H]1CN(C)C(=O)Oc1cccc2ccccc12 | -6.41% (inactive) |
| CO[C@@H]1CN(C)C(=O)c2cc(NS(=O)(=O)C3CCCCC3)ccc2OC[C@H](C)NC[C@@H]1C | 0.127% (inactive) |
| COc1ccc(CN(C)C[C@@H]2Oc3ccc(NC(=O)Nc4ccc(F)cc4)cc3CC(=O)N([C@H](C)CO)C[C@H]2C)cc1 | -7.45% (inactive) |
| O=C(NCCc1ccccc1)[C@H]1[C@H](CO)[C@H]2Cn3c(cccc3=O)[C@@H]1N2C(=O)C1CCC1 | 7.71% (inactive) |
| CNC[C@@H]1OCCCC[C@H](C)Oc2ccc(NC(=O)Nc3ccc(F)cc3)cc2C(=O)N([C@@H](C)CO)C[C@H]1C | 28.7% (inactive) |
| Cc1ccc(C(=O)NC(=S)Nc2ccccc2N2CCCC2)cc1[N+](=O)[O-] | -8.33% (inactive) |
| COc1ccc(NC(=O)N(C)C[C@H]2OCc3ccccc3-c3c(n(C)c4ccccc34)C(=O)N([C@H](C)CO)C[C@@H]2C)cc1 | -4.07% (inactive) |
| CCC(=O)N(C)C[C@@H]1Oc2cc(C#CC(C)(C)O)ccc2S(=O)(=O)N([C@H](C)CO)C[C@H]1C | -15.7% (inactive) |
| CC(=O)c1ccc(OCC(=O)NCc2ccc(F)cc2)cc1 | 11% (inactive) |
| COCCNC(=O)C[C@H]1C[C@@H]2c3cc(NC(=O)C4CCC4)ccc3O[C@@H]2[C@H](CO)O1 | 26.2% (inactive) |
| Cc1ccc(C2CC(c3cccs3)=NN2C(=O)c2ccc(Br)o2)cc1 (stereo not given) | 39% (inactive) |
| Cc1noc(C)c1S(=O)(=O)Nc1ccc2c(c1)CC(=O)N([C@H](C)CO)C[C@H](C)[C@@H](CN(C)S(=O)(=O)c1cn(C)cn1)O2 | -28.7% (inactive) |
| C[C@@H]1CN([C@@H](C)CO)C(=O)c2cc(NS(=O)(=O)c3cn(C)cn3)ccc2O[C@@H]1CN(C)C(=O)Nc1cccc2ccccc12 | -15.2% (inactive) |
| COCC(=O)Nc1ccc2c(c1)C(=O)N(C)C[C@H](OC)[C@@H](C)CN(C(=O)c1ccccc1)[C@@H](C)CO2 | 13.6% (inactive) |
| N#C[C@H]1[C@@H](c2ccccc2)[C@@H](CO)N1C(=O)Cc1ccccc1 | -9.76% (inactive) |
| C[C@H]1CN([C@@H](C)CO)C(=O)c2cc(-c3ccc(F)cc3)cnc2O[C@@H]1CN(C)CC1CCCCC1 | -16.9% (inactive) |
| CCOC(=O)NC(=S)Nc1ccc(C(C)(C)C)cc1 | -11.3% (inactive) |
| O=C(c1ccco1)N1N=C(c2cccs2)CC1c1ccc(F)cc1 (stereo not given) | -39% (inactive) |
| O=C(CN(c1ccc(F)cc1)S(=O)(=O)c1ccccc1)N1CCOCC1 | -20% (inactive) |

| Structure (SMILES) | activity change, negative = cytotoxicity |
| --- | --- |
| Cc1ccccc1OCC(=O)NC(C)c1ccccc1 (stereo not given) | -29.9% (inactive) |
| CCCNC(=O)N1[C@@H](CO)[C@@H](c2ccc(-c3ccccc3)cc2)[C@@H]1CNC(C)=O | -1.66% (inactive) |
| C[C@@H]1CN([C@@H](C)CO)C(=O)c2cc(-c3cncnc3)cnc2O[C@H]1CN(C)C(=O)CN1CCOCC1 | -25.3% (inactive) |
| C[C@@H]1CN([C@H](C)CO)C(=O)c2cc(/C=C/c3ccccc3)cnc2O[C@@H]1CN(C)S(C)(=O)=O | -0.658% (inactive) |
| CNC[C@@H]1Oc2c(NS(=O)(=O)c3ccc(Cl)cc3)cccc2C(=O)N([C@H](C)CO)C[C@H]1C | 24.2% (inactive) |
| Cc1ccc(S(=O)(=O)N[C@@H]2CC[C@H](CCNC(=O)C3CCCC3)O[C@@H]2CO)cc1 | -17.8% (inactive) |
| C[C@H](CO)N1C[C@H](C)[C@@H](CN(C)C(=O)C2CCOCC2)Oc2ncc(C#CCc3ccccc3)cc2C1=O | 6.08% (inactive) |
| CC(C)CC#Cc1cnc2c(c1)C(=O)N([C@@H](C)CO)C[C@H](C)[C@H](CN(C)C(=O)c1ccc3c(c1)OCO3)O2 | 16.5% (inactive) |
| CO[C@@H](CN(C)Cc1ccc2c(c1)OCO2)[C@@H](C)CN(C(=O)c1ccccc1)[C@H](C)CO | 29.3% (inactive) |
| COCCNC(=O)C[C@@H]1C[C@@H]2c3cc(NC(=O)C4CCOCC4)ccc3O[C@@H]2[C@@H](CO)O1 | -3.7% (inactive) |
| Cc1c(C(=O)NC(=S)Nc2ccccc2N2CCCC2)cccc1[N+](=O)[O-] | -4.96% (inactive) |
| COc1cc(CO)cc(I)c1O[C@H]1C=C(C(=O)NCCO)C[C@@H](N(CC2CCCCC2)C(=O)c2cc3ccccc3oc2=O)[C@@H]1O | 29.4% (inactive) |
| O=C(C[C@H]1CC[C@H]2[C@@H](COC[C@H](O)CN2C(=O)Nc2ccc3c(c2)OCO3)O1)N1CCN(c2ccccc2)CC1 | 5.63% (inactive) |
| C[C@H](CO)N1C[C@H](C)[C@H](CN(C)Cc2cccnc2)Oc2ncc(C#CC3(O)CCCC3)cc2C1=O | -14.5% (inactive) |
| CC(C)c1ccc(S(=O)(=O)N2CCN(CC(=O)Nc3ccc4c(c3)OCO4)CC2)cc1 | -0.379% (inactive) |
| C[C@H]1CN([C@@H](C)CO)C(=O)c2cc(NC(=O)Nc3cccc4ccccc34)ccc2O[C@@H]1CN(C)C(=O)Nc1ccc(C(F)(F)F)cc1 | 1.29% (inactive) |
| CCCCN1C(=S)NC[C@@H]1Cc1ccccc1 | 6.24% (inactive) |
| COc1ccc(NC(=O)N(C)C[C@H]2OCCCC[C@@H](C)Oc3ccc(N(C)C)cc3C(=O)N([C@H](C)CO)C[C@H]2C)cc1 | -1% (inactive) |
| C[C@H](NC(=O)C[C@@H]1C=C[C@H](NC(=O)CN2CCOCC2)[C@@H](CO)O1)c1ccccc1 | 18.6% (inactive) |

| Structure (SMILES) | activity change, negative = cytotoxicity |
| --- | --- |
| O=C(c1cccc(F)c1)N1C[C@H]2[C@@H](c3ccccc31)[C@@H](CO)N2Cc1cocn1 | -0.298% (inactive) |
| CCC(=O)N(C)C[C@H]1Oc2cc(-c3ccccc3)ccc2S(=O)(=O)N([C@H](C)CO)C[C@H]1C | 6.53% (inactive) |
| COc1ccc(S(=O)(=O)Nc2ccc3c(c2)C(=O)N([C@H](C)CO)C[C@H](C)[C@H](CN(C)C(=O)Nc2ccccc2)O3)cc1 | -2.82% (inactive) |
| CO[C@H]1CN(C)C(=O)c2cc(NS(=O)(=O)CC(F)(F)F)ccc2OC[C@@H](C)N(Cc2cccnc2)C[C@@H]1C | -36.3% (inactive) |
| CCCC(=O)Nc1ccc2c(c1)OC[C@@H](C)N(Cc1cncnc1)C[C@@H](C)[C@@H](OC)CN(C)C2=O | 49.4% (inactive) |
| CC(C)NC(=O)Nc1ccc2c(c1)C(=O)N([C@@H](C)CO)C[C@@H](C)[C@@H](CN(C)C(=O)c1ccncc1)OCCCC[C@@H](C)O2 | -15.2% (inactive) |
| O=C(NCCc1ccccc1)[C@@H]1[C@@H](CO)[C@@H]2Cn3c(cccc3=O)[C@H]1N2C(=O)C1CCC1 | 8.28% (inactive) |
| CNC[C@H]1Oc2cc(Br)ccc2S(=O)(=O)N([C@H](C)CO)C[C@H]1C | 37.7% (inactive) |
| O=C(C[C@@H]1C=C[C@@H](NC(=O)c2cccc(F)c2)[C@H](CO)O1)NCCN1CCCC1 | 20.8% (inactive) |
| CC(C)NC(=O)N(C)C[C@@H]1Oc2c(NC(=O)C3CCCCC3)cccc2C(=O)N([C@@H](C)CO)C[C@@H]1C | 24.4% (inactive) |
| O=C(Cc1ccccc1)N[C@H]1C=C[C@@H](CC(=O)N2CCOCC2)O[C@@H]1CO | -14.2% (inactive) |
| CNC(=O)CSc1ncnc2c1cnn2-c1ccccc1 | 10.1% (inactive) |
| O=c1nc(-c2ccccc2)c2ccccc2[nH]1 | 1.46% (inactive) |
| C/C=C/c1ccc([C@@H]2[C@@H](C#N)N(S(=O)(=O)c3cccc(F)c3)[C@@H]2CO)cc1 | 4.72% (inactive) |
| Cc1noc(C)c1S(=O)(=O)Nc1ccc2c(c1)C(=O)N([C@@H](C)CO)C[C@@H](C)[C@@H](CN(C)Cc1ccccc1)OCCCC[C@H](C)O2 | -12.2% (inactive) |
| CC(=O)N1[C@@H](CO)[C@H](c2ccc(-c3ccccc3)cc2)[C@@H]1CNC(=O)C1CC1 | 13.9% (inactive) |
| Cc1cc(C(=O)Nc2ccc3c(c2)C(=O)N(C)[C@@H]2CC[C@@H](CC(=O)N[C@@H](C)c4ccccc4)O[C@@H]2CO3)no1 | -33.4% (inactive) |
| C[C@@H](NC(=O)C[C@@H]1CC[C@H]2[C@@H](COC[C@@H](O)CN2Cc2cc(F)ccc2F)O1)c1ccccc1 | -19.7% (inactive) |
| COC(=O)C1=C(C)N(Cc2ccccc2)C(=S)N[C@H]1c1cccc(C(F)(F)F)c1 | -25.6% (inactive) |

Same assay, conditions: HEK293T viability, ATP luminescence (CellTiter-Glo), 48 h; at 30 µM (top of the series)

| Structure (SMILES) | activity change, negative = cytotoxicity |
| --- | --- |
| COCCN1C(=S)N[C@@H](c2ccccc2)C(C(=O)OC)=C1C | 28.9% (inactive) |

Same assay, conditions: HEK293T viability, ATP luminescence (CellTiter-Glo), 48 h; at 42 µM (top of the series)

| Structure (SMILES) | activity change, negative = cytotoxicity |
| --- | --- |
| Cc1ccc(C)c(NC(=O)C2(C)CCCN2C(=O)C(C)C)c1 (stereo not given) | -23.6% (inactive) |
